# Assay results from article PMC3198391, “Mechanism of Disruption of the Amt-GlnK Complex by PII-Mediated Sensing of 2-Oxoglutarate” (PLoS ONE, 2011).
# Assays:
# Af-GlnK3 [1] = biological target: T1, Af-GlnK3 (Archaeoglobus fulgidus, UniProt O28524); assay: isothermal titration calorimetry, one-site model; assay type: binding; conditions: read-out: Dissociation constantKD
# T1 construct: full length, pET21a, C-terminal pentahistidine tag kept, three Ala (113-115) inserted in linker before tag; E. coli BL21(DE3) Rosetta; 13 kDa monomer, homotrimer; forward primer encodes MKMVVAVI, reverse end TGDEEV; sites between monomers
# Excerpt: (§1) isothermal titration calorimetry, one-site model on Af-GlnK3
# Af-GlnK3 [2] = biological target: T2, Af-GlnK3 (Archaeoglobus fulgidus, UniProt O28524, F97I); assay: isothermal titration calorimetry, one-site model; assay type: binding; conditions: read-out: Dissociation constantKD
# T2 construct: full length, pET21a, C-terminal pentahistidine tag kept, three Ala (113-115) inserted in linker before tag; E. coli BL21(DE3) Rosetta; 13 kDa monomer, homotrimer; forward primer encodes MKMVVAVI, reverse end TGDEEV; sites between monomers
# Excerpt: as §1
# Af-GlnK3 [3] = biological target: T3, Af-GlnK3 (Archaeoglobus fulgidus, UniProt O28524, F97P); assay: isothermal titration calorimetry, one-site model; assay type: binding; conditions: read-out: Dissociation constantKD
# T3 construct: full length, pET21a, C-terminal pentahistidine tag kept, three Ala (113-115) inserted in linker before tag; E. coli BL21(DE3) Rosetta; 13 kDa monomer, homotrimer; forward primer encodes MKMVVAVI, reverse end TGDEEV; sites between monomers
# Excerpt: as §1
# [4] = biological target: Af-GlnK3 (Archaeoglobus fulgidus) (UniProt O28524); assay: SEC; gel filtration during purification; 50 mM Tris-HCl pH 8.0, 300 mM NaCl
# [5] = biological target: Af-GlnK3 (Archaeoglobus fulgidus) (UniProt O28524); assay: crystal structure; vapour diffusion, sitting drop, trimer fraction from size exclusion chromatography; crystals as isolated, soaked with MgATP or MgADP, or co-crystallised with MgATP and 2-OG
# Sequence of Af-GlnK3 (from UniProt O28524 1-120) (natural protein) (O28524 whole entry): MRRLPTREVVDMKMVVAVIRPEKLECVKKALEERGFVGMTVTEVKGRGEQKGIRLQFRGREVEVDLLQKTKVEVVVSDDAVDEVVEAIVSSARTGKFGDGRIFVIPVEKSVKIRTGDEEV
# T2 sequence (O28524 12-120 F97I): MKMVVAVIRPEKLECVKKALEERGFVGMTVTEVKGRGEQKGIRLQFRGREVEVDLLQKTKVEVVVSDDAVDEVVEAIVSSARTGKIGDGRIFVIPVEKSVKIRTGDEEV
# T1 sequence (O28524 12-120): as the sequence (O28524 12-120 F97I) above, with I86F counted along it
# T3 sequence (O28524 12-120 F97P): as the sequence (O28524 12-120 F97I) above, with I86P counted along it
Kd (Af-GlnK3 [1]) [µM],Kd (Af-GlnK3 [2]) [µM],Kd (Af-GlnK3 [3]) [µM],stoichiometry N [4],stoichiometry N [5],Compound
338,149,128,,,Nc1ncnc2c1ncn2[C@@H]1O[C@H](COP(=O)(O)OP(=O)(O)OP(=O)(O)O)[C@@H](O)[C@H]1O [ATP]
568,373,102,,,Nc1ncnc2c1ncn2[C@@H]1O[C@H](COP(=O)(O)OP(=O)(O)O)[C@@H](O)[C@H]1O [ADP]
,,,3,3,Af-GlnK3 (from UniProt O28524 1-120) (natural protein)
